Data published in US20220340597A1, “HEXAHYDRO-1H-PYRAZINO[1,2-A]PYRAZINE COMPOUNDS FOR THE TREATMENT OF AUTOIMMUNE DISEASE” (Hoffmann-La Roche Inc., priority 2019, published 2022).

How the values were obtained:
human TLR9 = target: T1, human TLR9 (Homo sapiens, UniProt Q9NR96); assay: HEK293-Blue-hTLR-9 cells assay; format: cell-based; conditions: HEK293-Blue-hTLR9 cells, ODN2006 stimulation, 20 hrs, SEAP reporter; read-out: HEK/hTLR9 IC50
T1 construct: host or cells: HEK293 (HEK-Blue hTLR9)
T1 sequence (Q9NR96 26-1032): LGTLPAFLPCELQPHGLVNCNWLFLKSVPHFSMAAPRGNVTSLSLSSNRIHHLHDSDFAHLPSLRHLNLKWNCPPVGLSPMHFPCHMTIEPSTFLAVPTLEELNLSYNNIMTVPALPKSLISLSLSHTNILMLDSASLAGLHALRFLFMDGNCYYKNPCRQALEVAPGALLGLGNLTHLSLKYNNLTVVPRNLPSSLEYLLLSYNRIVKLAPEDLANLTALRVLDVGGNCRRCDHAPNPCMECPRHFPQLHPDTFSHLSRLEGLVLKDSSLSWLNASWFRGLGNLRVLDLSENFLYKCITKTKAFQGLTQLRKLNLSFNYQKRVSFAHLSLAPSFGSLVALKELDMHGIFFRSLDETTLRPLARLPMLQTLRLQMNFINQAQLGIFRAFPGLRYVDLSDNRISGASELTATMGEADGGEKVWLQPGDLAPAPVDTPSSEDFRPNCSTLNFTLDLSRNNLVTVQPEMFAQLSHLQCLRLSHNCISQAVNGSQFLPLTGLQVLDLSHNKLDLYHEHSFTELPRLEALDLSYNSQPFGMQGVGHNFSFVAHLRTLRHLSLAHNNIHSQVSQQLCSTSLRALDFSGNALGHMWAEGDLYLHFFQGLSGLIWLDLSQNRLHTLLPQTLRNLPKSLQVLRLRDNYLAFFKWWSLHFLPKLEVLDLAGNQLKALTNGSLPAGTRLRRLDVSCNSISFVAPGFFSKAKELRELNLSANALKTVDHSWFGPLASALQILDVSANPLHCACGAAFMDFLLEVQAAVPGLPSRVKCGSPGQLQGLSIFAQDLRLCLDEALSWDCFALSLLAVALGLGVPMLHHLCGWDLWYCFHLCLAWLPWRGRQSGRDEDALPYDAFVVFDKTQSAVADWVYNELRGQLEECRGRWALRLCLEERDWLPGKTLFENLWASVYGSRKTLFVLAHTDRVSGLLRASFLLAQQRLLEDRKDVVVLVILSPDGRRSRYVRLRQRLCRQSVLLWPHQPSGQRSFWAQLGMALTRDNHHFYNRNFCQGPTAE
Method: The following tests were carried out in order to determine the activity of the compounds of formula (I) and (Ia) in HEK293-Blue-hTLR-7/8/9 cells assay.
HEK293-Blue-hTLR-9 Cells Assay:
A stable HEK293-Blue-hTLR-9 cell line was purchased from InvivoGen (Cat. #: hkb-htlr9, San Diego, Calif., USA). These cells were originally designed for studying the stimulation of human TLR9 by monitoring the activation of NF-κB. A SEAP (secreted embryonic alkaline phosphatase) reporter gene was placed under the control of the […] minimal promoter fused to five NF-κB and AP-1-binding sites. The SEAP was induced by activating NF-κB and AP-1 via stimulating HEK-Blue hTLR9 cells with TLR9 ligands. Therefore, the reporter expression was declined by TLR9 antagonist under the stimulation of a ligand, such as ODN2006 (Cat. #: tlr1-2006-1, Invivogen, San Diego, Calif., USA), for incubation of 20 hrs. The cell culture supernatant SEAP reporter activity was determined using QUANTI-Blue™ kit (Cat. #: rep-qb1, Invivogen, San Diego, Calif., USA) at a wavelength of 640 nm, a detection medium that turns purple or blue in the presence of alkaline phosphatase.
Then 20 μL of the supernatant from each well was incubated with 180 μL Quanti-blue substrate solution at 37° C. for 2 h and the absorbance was read at 620-655 nm using a spectrophotometer. The signaling pathway that TLR9 activation leads to downstream NF-κB activation has been widely accepted, and therefore similar reporter assay was modified for evaluating TLR9 antagonist.

hERG channel = target: T2, hERG channel (Homo sapiens, UniProt Q12809); assay: hERG channel inhibition assay (patch-clamp, CHOhERG cells); format: cell-based; conditions: CHOhERG cells, whole-cell patch-clamp; for IC20: human, CHO cells stably expressing hERG (CHOhERG)
T2 construct: expressed in transfected cells; host or cells: CHO (Chinese hamster ovary), CHOhERG
Method: hERG Channel Inhibition Assay:
The hERG K^+ channels were cloned in humans and stably expressed in a CHO (Chinese hamster ovary) cell line. CHOhERG cells were used for patch-clamp (voltage-clamp, whole-cell) experiments. Cells were stimulated by a voltage pattern to activate hERG channels and conduct IKhERG currents (rapid delayed outward rectifier potassium current of the hERG channel). After the cells were stabilized for a few minutes, the amplitude and kinetics of IKhERG were recorded at a stimulation frequency of 0.1 Hz (6 bpm). Thereafter, the test compound was added to the preparation at increasing concentrations. For each concentration, an attempt was made to reach a steady-state effect, usually, this was achieved within 3-10 min at which time the next highest concentration was applied. The amplitude and kinetics of IKhERG are recorded in each concentration of the drug which were compared to the control values (taken as 100%). (references: Redfern W S, Carlsson L, Davis A S, Lynch W G, MacKenzie I, Palethorpe S, Siegl P K, Strang I, Sullivan A T, Wallis R, Camm A J, Hammond T G. 2003; Relationships between preclinical cardiac electrophysiology, clinical QT interval prolongation and torsade de pointes for a broad range of drugs: evidence for a provisional safety margin in drug development. Cardiovasc. Res. 58:32-45, Sanguinetti M C, Tristani-Firouzi M. 2006; hERG potassium channels and cardiac arrhythmia. Nature 440:463-469, Webster R, Leishman D, Walker D. 2002; Towards a drug concentration effect relationship for QT prolongation and torsades de pointes. Curr. Opin. Drug Discov. Devel. 5:116-26).
The calculation of hERG IC20/TLR7/8/9 IC50 below serves as early selectivity index to assess hERG liability.

T2 sequence (Q12809 whole entry): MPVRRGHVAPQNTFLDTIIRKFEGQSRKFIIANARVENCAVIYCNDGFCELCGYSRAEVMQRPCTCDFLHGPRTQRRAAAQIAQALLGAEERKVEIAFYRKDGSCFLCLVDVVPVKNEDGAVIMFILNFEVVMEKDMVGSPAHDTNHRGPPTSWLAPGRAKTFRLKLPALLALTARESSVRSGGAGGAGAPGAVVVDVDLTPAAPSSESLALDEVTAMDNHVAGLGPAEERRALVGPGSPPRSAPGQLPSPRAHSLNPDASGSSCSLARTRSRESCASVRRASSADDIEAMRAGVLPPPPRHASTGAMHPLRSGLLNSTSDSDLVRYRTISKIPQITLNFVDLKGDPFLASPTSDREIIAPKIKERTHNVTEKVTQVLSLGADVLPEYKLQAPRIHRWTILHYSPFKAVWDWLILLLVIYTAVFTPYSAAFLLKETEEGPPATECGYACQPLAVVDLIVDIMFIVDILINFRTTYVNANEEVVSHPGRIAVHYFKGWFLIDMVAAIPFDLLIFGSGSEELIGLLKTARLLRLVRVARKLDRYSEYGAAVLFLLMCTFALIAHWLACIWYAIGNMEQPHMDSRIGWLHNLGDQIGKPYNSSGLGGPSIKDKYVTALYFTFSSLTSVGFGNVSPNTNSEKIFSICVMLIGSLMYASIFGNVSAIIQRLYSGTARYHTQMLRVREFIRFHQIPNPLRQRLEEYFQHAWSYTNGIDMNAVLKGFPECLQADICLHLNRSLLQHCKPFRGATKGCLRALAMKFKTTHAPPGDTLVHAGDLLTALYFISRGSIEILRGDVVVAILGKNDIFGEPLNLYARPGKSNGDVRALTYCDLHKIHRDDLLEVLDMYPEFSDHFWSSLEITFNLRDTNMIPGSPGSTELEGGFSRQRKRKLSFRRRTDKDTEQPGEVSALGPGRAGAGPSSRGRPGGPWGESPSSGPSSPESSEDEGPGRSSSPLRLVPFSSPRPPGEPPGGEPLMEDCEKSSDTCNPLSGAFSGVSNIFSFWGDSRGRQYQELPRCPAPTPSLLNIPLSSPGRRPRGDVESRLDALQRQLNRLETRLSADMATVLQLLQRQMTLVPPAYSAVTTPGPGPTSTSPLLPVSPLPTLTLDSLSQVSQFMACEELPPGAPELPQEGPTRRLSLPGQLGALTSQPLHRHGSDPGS

| Structure (SMILES) | IC50 (human TLR9) [nM] | IC50 (hERG channel) [nM] | IC20 (hERG channel) [nM] |
| --- | --- | --- | --- |
| C[C@@H]1CN(c2ccc(C#N)c3ncccc23)C[C@@H]2CN(CCc3ccc(N4C[C@@H](N)[C@@H](F)C4)nc3)CCN21 [Example 17, 5-[(4R,9aS)-8-[2-[6-[(3R,4S)-3-amino-4-fluoro-pyrrolidin-1-yl]-3-pyridyl]ethyl]-4-methyl-3,4,6,7,9,9a-hexahydro-1H-pyrazino[1,2-a]pyrazin-2-yl]quinoline-8-carbonitrile] | 47 | > 20000 | > 10000 |
| C[C@@H]1CN(c2ccc(C#N)c3ncccc23)C[C@H]2CN(c3cncc4c3CCNC4)CCN21 [Example 42, 5-[(4R,9aS)-4-methyl-8-(5,6,7,8-tetrahydro-2,7-naphthyridin-4-yl)-3,4,6,7,9,9a-hexahydro-1H-pyrazino[1,2-a]pyrazin-2-yl]quinoline-8-carbonitrile] | 50 | > 10000 | 4350 |
| [2H]c1ccc2c(N3C[C@@H]4CN(CCc5ccc(N6C[C@@H](N)[C@@H](F)C6)nc5)CCN4[C@H](C)C3)ccc(C#N)c2n1 [Example 63, 5-[(4R,9aS)-8-[2-[6-[(3R,4S)-3-amino-4-fluoro-pyrrolidin-1-yl]-3-pyridyl]ethyl]-4-methyl-3,4,6,7,9,9a-hexahydro-1H-pyrazino[1,2-a]pyrazin-2-yl]-2-deuterio-quinoline-8-carbonitrile] | 78 |  |  |

Second part, led by results:

| IC50 (human TLR9) [nM] | Structure (SMILES) | IC50 (hERG channel) [nM] | IC20 (hERG channel) [nM] |
| --- | --- | --- | --- |
| 117 | C[C@@H]1CN(c2ccc(C#N)c3ncccc23)C[C@H]2CN(c3cccc4c3CCNC4)CCN21 (relative stereo) [Example 47] |  |  |
| 65 | C[C@@H]1CN(c2ccc(C#N)c3ncccc23)C[C@@H]2CN(CCc3ccc(N4C[C@@H](N)[C@H](F)C4)nc3)CCN21 [Example 18, 5-[(4R,9aS)-8-[2-[6-[(3R,4R)-3-amino-4-fluoro-pyrrolidin-1-yl]-3-pyridyl]ethyl]-4-methyl-3,4,6,7,9,9a-hexahydro-1H-pyrazino[1,2-a]pyrazin-2-yl]quinoline-8-carbonitrile] |  |  |
| 50 | C[C@@H]1CN(c2ccc(C#N)c3ncccc23)C[C@@H]2CN(c3cncc4c3CCNC4)CCN21 [Example 44, 5-[(4R,9aR)-4-methyl-8-(5,6,7,8-tetrahydro-2,7-naphthyridin-4-yl)-3,4,6,7,9,9a-hexahydro-1H-pyrazino[1,2-a]pyrazin-2-yl]quinoline-8-carbonitrile] |  |  |
| 81 | [2H]c1ccc2c(N3C[C@@H]4CN(c5ncc(N6CC7(CC(N)C7)C6)cc5C)CCN4[C@H](C)C3)ccc(C#N)c2n1 [Example 101, 5-[(4R,9aR)-8-[5-(6-amino-2-azaspiro[3.3]heptan-2-yl)-3-methyl-2-pyridyl]-4-methyl-3,4,6,7,9,9a-hexahydro-1H-pyrazino[1,2-a]pyrazin-2-yl]-2-deuterio-quinoline-8-carbonitrile] |  |  |
| 70 | [2H]c1ccc2c(N3C[C@@H]4CN(c5ncc(N6CCOC[C@H](N)C6)cc5C)CCN4[C@@H](C)C3)ccc(C#N)c2n1 [Example 110, 5-[(4S,9aR)-8-[5-[(6R)-6-amino-1,4-oxazepan-4-yl]-3-methyl-2-pyridyl]-4-methyl-3,4,6,7,9,9a-hexahydro-1H-pyrazino[1,2-a]pyrazin-2-yl]-2-deuterio-quinoline-8-carbonitrile] |  |  |
